target: recombinant human Nav1.7 (Homo sapiens (Human), UniProt Q15858); experiment: FRET-based membrane potential assay, recombinant human sodium channel Nav1.7; type: cell-based; details: HEK293 cells stably expressing recombinant human Nav1.7; veratridine + scorpion venom depolarization; read-out: FRET-Membrane Potential Nav1.7 IC50
In short: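 Channel activation used veratridine at its EC80, set by a dilution curve each experiment, together with Leiurus scorpion venom, added 3 min after compound. Membrane-potential ratio signals from FLIPR Tetra in HEPES-buffered HBSS were fitted to a four-parameter Hill equation for percent inhibition and IC50.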

recombinant human Nav1.7, sequence (Q15858 whole entry): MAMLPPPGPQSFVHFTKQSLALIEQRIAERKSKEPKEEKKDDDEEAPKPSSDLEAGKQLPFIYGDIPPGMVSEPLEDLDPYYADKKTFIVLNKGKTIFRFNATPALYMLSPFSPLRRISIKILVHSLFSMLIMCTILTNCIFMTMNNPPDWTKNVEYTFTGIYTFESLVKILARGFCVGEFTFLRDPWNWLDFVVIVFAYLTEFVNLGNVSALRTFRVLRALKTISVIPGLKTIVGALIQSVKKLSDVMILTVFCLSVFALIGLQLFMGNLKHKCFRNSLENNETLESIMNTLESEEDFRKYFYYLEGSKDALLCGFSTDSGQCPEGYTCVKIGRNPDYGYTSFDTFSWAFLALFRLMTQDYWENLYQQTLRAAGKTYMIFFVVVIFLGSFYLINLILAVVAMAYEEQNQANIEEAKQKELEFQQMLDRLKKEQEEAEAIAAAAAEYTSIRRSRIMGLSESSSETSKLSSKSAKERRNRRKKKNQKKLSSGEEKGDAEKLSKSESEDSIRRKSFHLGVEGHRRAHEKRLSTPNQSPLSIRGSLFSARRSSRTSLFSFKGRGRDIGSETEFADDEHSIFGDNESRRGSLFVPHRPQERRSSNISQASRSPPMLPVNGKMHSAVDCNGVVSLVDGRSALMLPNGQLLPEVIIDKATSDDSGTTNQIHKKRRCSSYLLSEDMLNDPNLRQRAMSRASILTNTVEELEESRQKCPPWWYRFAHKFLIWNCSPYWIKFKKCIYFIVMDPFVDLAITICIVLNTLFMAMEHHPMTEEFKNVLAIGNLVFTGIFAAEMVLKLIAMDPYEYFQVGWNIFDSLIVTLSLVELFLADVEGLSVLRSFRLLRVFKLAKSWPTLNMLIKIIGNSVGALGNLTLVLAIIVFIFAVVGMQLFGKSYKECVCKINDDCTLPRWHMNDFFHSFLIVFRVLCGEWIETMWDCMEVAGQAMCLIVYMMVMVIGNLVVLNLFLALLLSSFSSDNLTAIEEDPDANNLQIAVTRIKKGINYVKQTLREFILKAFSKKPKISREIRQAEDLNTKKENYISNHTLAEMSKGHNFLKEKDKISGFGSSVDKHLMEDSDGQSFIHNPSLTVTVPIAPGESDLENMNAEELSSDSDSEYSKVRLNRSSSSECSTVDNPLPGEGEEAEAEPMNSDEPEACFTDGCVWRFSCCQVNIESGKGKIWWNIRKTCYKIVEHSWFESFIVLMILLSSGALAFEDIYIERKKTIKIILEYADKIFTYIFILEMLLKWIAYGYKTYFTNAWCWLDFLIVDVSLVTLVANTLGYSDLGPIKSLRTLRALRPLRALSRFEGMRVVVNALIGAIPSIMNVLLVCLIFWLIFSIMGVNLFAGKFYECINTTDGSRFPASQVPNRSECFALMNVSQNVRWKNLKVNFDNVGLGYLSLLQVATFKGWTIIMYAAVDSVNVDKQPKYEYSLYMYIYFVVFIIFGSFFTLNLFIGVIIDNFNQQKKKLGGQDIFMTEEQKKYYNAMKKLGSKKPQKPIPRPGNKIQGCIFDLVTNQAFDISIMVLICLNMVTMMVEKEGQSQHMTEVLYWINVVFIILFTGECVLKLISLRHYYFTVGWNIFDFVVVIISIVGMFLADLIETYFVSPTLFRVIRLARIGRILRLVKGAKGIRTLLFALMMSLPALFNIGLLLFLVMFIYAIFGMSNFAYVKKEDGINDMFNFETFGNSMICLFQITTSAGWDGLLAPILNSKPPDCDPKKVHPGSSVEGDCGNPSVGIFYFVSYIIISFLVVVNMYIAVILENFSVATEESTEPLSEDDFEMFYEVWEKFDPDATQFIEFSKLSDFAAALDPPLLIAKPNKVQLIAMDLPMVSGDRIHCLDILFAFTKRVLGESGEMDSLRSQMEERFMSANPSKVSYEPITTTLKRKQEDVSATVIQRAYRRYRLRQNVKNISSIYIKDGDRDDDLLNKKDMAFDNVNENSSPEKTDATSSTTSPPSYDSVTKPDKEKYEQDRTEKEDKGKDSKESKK

SMILES | IC50 [nM]
COCC1(F)CCN(C(=O)c2ccc3cc(Oc4ccc(C(F)(F)F)cn4)ccc3n2)C1 (stereo not shown) [Example 487, [3-fluoro-3-(methoxymethyl)pyrrolidin-1-yl](6-{[5-(trifluoromethyl)pyridin-2-yl]oxy}quinolin-2-yl)methanone] | 919
O=C(c1ccc2cc(Oc3ccc(C(F)(F)F)cn3)ccc2n1)N1CCC(F)(COc2ccncc2)C1 (stereo not shown) [Example 489, {3-fluoro-3-[(pyridin-4-yloxy)methyl]pyrrolidin-1-yl}(6-{[5-(trifluoromethyl)pyridin-2-yl]oxy}quinolin-2-yl)methanone] | 1100
O=C(c1ccc2cc(Oc3ccc(C(F)(F)F)cn3)ccc2n1)N1CCC(F)(COc2cccnc2)C1 (stereo not shown) [Example 490, {3-fluoro-3-[(pyridin-3-yloxy)methyl]pyrrolidin-1-yl}(6-{[5-(trifluoromethyl)pyridin-2-yl]oxy}quinolin-2-yl)methanone] | 1420
O=C(c1ccc2cc(Oc3ccc(C(F)(F)F)cn3)ccc2n1)N1CCC(F)(COc2ccccc2)C1 (stereo not shown) [Example 491, [3-fluoro-3-(phenoxymethyl)pyrrolidin-1-yl](6-{[5-(trifluoromethyl)pyridin-2-yl]oxy}quinolin-2-yl)methanone] | 4990
O=C(NCC1CN(C(=O)c2ccc3cc(Oc4ccc(C(F)(F)F)cn4)ccc3n2)CC1F)OCc1ccccc1 (stereo not shown) [Example 492, benzyl ({4-fluoro-1-[(6-{[5-(trifluoromethyl)pyridin-2-yl]oxy}quinolin-2-yl)carbonyl]pyrrolidin-3-yl}methyl)carbamate] | 858
COCCOCC1(F)CCN(C(=O)c2ccc3cc(Oc4ccc(C(F)(F)F)cn4)ccc3n2)C1 (stereo not shown) [Example 493, {3-fluoro-3-[(2-methoxyethoxy)methyl]pyrrolidin-1-yl}(6-{[5-(trifluoromethyl)pyridin-2-yl]oxy}quinolin-2-yl)methanone] | 802
O=C(c1ccc2cc(Oc3ccc(C(F)(F)F)cn3)ccc2n1)N1CCC2(COC2)C1 [Example 494, 2-oxa-6-azaspiro[3.4]oct-6-yl(6-{[5-(trifluoromethyl)pyridin-2-yl]oxy}quinolin-2-yl)methanone] | 9320
O=C(c1ccc2cc(Oc3ccc(C(F)(F)F)cn3)ccc2n1)N1C[C@@H](F)C[C@@H]1CO [Example 495, [(2R,4S)-4-fluoro-2-(hydroxymethyl)pyrrolidin-1-yl](6-{[5-(trifluoromethyl)pyridin-2-yl]oxy}quinolin-2-yl)methanone] | 1690
O=C(c1ccc2cc(Oc3ccc(C(F)(F)F)cn3)ccc2n1)N1CC(F)(F)C[C@@H]1CO [Example 496, [(2R)-4,4-difluoro-2-(hydroxymethyl)pyrrolidin-1-yl](6-{[5-(trifluoromethyl)pyridin-2-yl]oxy}quinolin-2-yl)methanone] | 2910
O=C(c1ccc2cc(Oc3ccc(C(F)(F)F)cn3)ccc2n1)N1CC(F)(F)C[C@H]1CO [Example 497, [(2S)-4,4-difluoro-2-(hydroxymethyl)pyrrolidin-1-yl](6-{[5-(trifluoromethyl)pyridin-2-yl]oxy}quinolin-2-yl)methanone] | 3430
COc1cccc(N2CCN(C(=O)c3ccc4cc(Oc5ccc(C(F)(F)F)cn5)ccc4n3)CC2=O)c1 [Example 498, 1-(3-methoxyphenyl)-4-[(6-{[5-(trifluoromethyl)pyridin-2-yl]oxy}quinolin-2-yl)carbonyl]piperazin-2-one] | 923
O=C(NC1CSC1)c1ccc2cc(Oc3ccc(C(F)(F)F)cn3)ccc2n1 [Example 499, N-(thietan-3-yl)-6-{[5-(trifluoromethyl)pyridin-2-yl]oxy}quinoline-2-carboxamide] | 938
Cc1ccccc1NC(=O)CCNC(=O)c1ccc2cc(Oc3ccc(C(F)(F)F)cn3)ccc2n1 [Example 500, N-{3-[(2-methylphenyl)amino]-3-oxopropyl}-6-{[5-(trifluoromethyl)pyridin-2-yl]oxy}quinoline-2-carboxamide] | 293
COc1ccccc1N1CC(NC(=O)c2ccc3cc(Oc4ccc(C(F)(F)F)cn4)ccc3n2)CC1=O (stereo not shown) [Example 502, N-[1-(2-methoxyphenyl)-5-oxopyrrolidin-3-yl]-6-{[5-(trifluoromethyl)pyridin-2-yl]oxy}quinoline-2-carboxamide] | 429
O=C(NC1C[S+]([O-])C1)c1ccc2cc(Oc3ccc(C(F)(F)F)cn3)ccc2n1 (stereo not shown) [Example 503, N-(1-oxidothietan-3-yl)-6-{[5-(trifluoromethyl)pyridin-2-yl]oxy}quinoline-2-carboxamide] | 586
O=C(NC1CS(=O)(=O)C1)c1ccc2cc(Oc3ccc(C(F)(F)F)cn3)ccc2n1 [Example 504, N-(1,1-dioxidothietan-3-yl)-6-{[5-(trifluoromethyl)pyridin-2-yl]oxy}quinoline-2-carboxamide] | 593
CC(=O)C1CN(C(=O)c2ccc3cc(Oc4ccc(C(F)(F)F)cn4)ccc3n2)C1 [Example 506, 1-{1-[(6-{[5-(trifluoromethyl)pyridin-2-yl]oxy}quinolin-2-yl)carbonyl]azetidin-3-yl}ethanone] | 781
O=C(c1ccc2cc(Oc3ccc(C(F)(F)F)cn3)ccc2n1)N1CC(F)C1 [Example 507, (3-fluoroazetidin-1-yl)(6-{[5-(trifluoromethyl)pyridin-2-yl]oxy}quinolin-2-yl)methanone] | 2180
O=C(c1ccc2cc(Oc3ccc(C(F)(F)F)cn3)ccc2n1)N1CC(F)(F)C1 [Example 508, (3,3-difluoroazetidin-1-yl)(6-{[5-(trifluoromethyl)pyridin-2-yl]oxy}quinolin-2-yl)methanone] | 3650
CN(C)C(=O)[C@@H]1C[C@@H](F)CN1C(=O)c1ccc2cc(Oc3ccc(C(F)(F)F)cn3)ccc2n1 [Example 509, (4R)-4-fluoro-N,N-dimethyl-1-[(6-{[5-(trifluoromethyl)pyridin-2-yl]oxy}quinolin-2-yl)carbonyl]-L-prolinamide] | 2640
O=C(c1ccc2cc(Oc3ccc(C(F)(F)F)cn3)ccc2n1)N1CCN(Cc2ncco2)CC1 [Example 510, [4-(1,3-oxazol-2-ylmethyl)piperazin-1-yl](6-{[5-(trifluoromethyl)pyridin-2-yl]oxy}quinolin-2-yl)methanone] | 7290
O=C(NC1CCC(F)(F)CC1)c1ccc2cc(Oc3ccc(C(F)(F)F)nc3)ccc2n1 [Example 511, N-(4,4-difluorocyclohexyl)-6-{[6-(trifluoromethyl)pyridin-3-yl]oxy}quinoline-2-carboxamide] | 1980
COCCNC(=O)CN(C)C(=O)c1ccc2cc(Oc3ccc(C(F)(F)F)nc3)ccc2n1 [Example 514, N-{2-[(2-methoxyethyl)amino]-2-oxoethyl}-N-methyl-6-{[6-(trifluoromethyl)pyridin-3-yl]oxy}quinoline-2-carboxamide] | 12900
O=C(NCCC(=O)N1CCOCC1)c1ccc2cc(Oc3ccc(C(F)(F)F)nc3)ccc2n1 [Example 515, N-[3-(morpholin-4-yl)-3-oxopropyl]-6-{[6-(trifluoromethyl)pyridin-3-yl]oxy}quinoline-2-carboxamide] | 4250
O=C(NCCC(=O)N1CCCC1)c1ccc2cc(Oc3ccc(C(F)(F)F)nc3)ccc2n1 [Example 516, N-[3-oxo-3-(pyrrolidin-1-yl)propyl]-6-{[6-(trifluoromethyl)pyridin-3-yl]oxy}quinoline-2-carboxamide] | 2000
CCN(CC)C(=O)CNC(=O)c1ccc2cc(Oc3ccc(C(F)(F)F)nc3)ccc2n1 [Example 517, N-[2-(diethylamino)-2-oxoethyl]-6-{[6-(trifluoromethyl)pyridin-3-yl]oxy}quinoline-2-carboxamide] | 370
O=C(NCC(=O)N1CCCCC1)c1ccc2cc(Oc3ccc(C(F)(F)F)nc3)ccc2n1 [Example 518, N-[2-oxo-2-(piperidin-1-yl)ethyl]-6-{[6-(trifluoromethyl)pyridin-3-yl]oxy}quinoline-2-carboxamide] | 998
CN1CC(NC(=O)c2ccc3cc(Oc4ccc(C(F)(F)F)nc4)ccc3n2)CC1=O (stereo not shown) [Example 519, N-(1-methyl-5-oxopyrrolidin-3-yl)-6-{[6-(trifluoromethyl)pyridin-3-yl]oxy}quinoline-2-carboxamide] | 1160
O=C(NCCC(=O)N1CCCCC1)c1ccc2cc(Oc3ccc(C(F)(F)F)nc3)ccc2n1 [Example 520, N-[3-oxo-3-(piperidin-1-yl)propyl]-6-{[6-(trifluoromethyl)pyridin-3-yl]oxy}quinoline-2-carboxamide] | 945
CCN1CC(NC(=O)c2ccc3cc(Oc4ccc(C(F)(F)F)nc4)ccc3n2)CC1=O (stereo not shown) [Example 523, N-(1-ethyl-5-oxopyrrolidin-3-yl)-6-{[6-(trifluoromethyl)pyridin-3-yl]oxy}quinoline-2-carboxamide] | 356

same assay, conditions: read-out: FRET-Membrane Potential Nav1.7 IC50

SMILES | IC50 [nM]
CCOCC1(F)CCN(C(=O)c2ccc3cc(Oc4ccc(C(F)(F)F)cn4)ccc3n2)C1 (stereo not shown) [Example 488, [3-(ethoxymethyl)-3-fluoropyrrolidin-1-yl](6-{[5-(trifluoromethyl)pyridin-2-yl]oxy}quinolin-2-yl)methanone] | 526
CN(C)C(=O)[C@H](Cc1ccccc1)NC(=O)c1ccc2cc(Oc3ccc(C(F)(F)F)cn3)ccc2n1 [Example 501, N-[(2S)-1-(dimethylamino)-1-oxo-3-phenylpropan-2-yl]-6-{[5-(trifluoromethyl)pyridin-2-yl]oxy}quinoline-2-carboxamide] | 734
O=C(NCC(=O)N1CCCC1)c1ccc2cc(Oc3ccc(C(F)(F)F)nc3)ccc2n1 [Example 513, N-[2-oxo-2-(pyrrolidin-1-yl)ethyl]-6-{[6-(trifluoromethyl)pyridin-3-yl]oxy}quinoline-2-carboxamide] | 911
CN(CC(=O)NC1CC1)C(=O)c1ccc2cc(Oc3ccc(C(F)(F)F)nc3)ccc2n1 [Example 522, N-[2-(cyclopropylamino)-2-oxoethyl]-N-methyl-6-{[6-(trifluoromethyl)pyridin-3-yl]oxy}quinoline-2-carboxamide] | 10700
